Inhibition data for 20 molecules are collected here from patent US20090291971A1, “HETEROARYL ETHERS AND PROCESSES FOR THEIR PREPARATION” (Wyeth, priority 2007, published 2009).

Holding throughout (format): biochemical
The target of one assay is PI3K alpha (Homo sapiens, UniProt P42336). The experiment in a line: PI3 Kinase Assay (PI3K alpha). The method, then: (§1) PI3-Kinase reactions were performed in […], pH 7, […], and 25 μM ATP, with diC8-PI(4,5)P2 (Echelon, Salt Lake City Utah) as substrate. Nunc 384 well black polypropylene fluorescent plates were used for PI3K assays. Reactions were quenched by the addition of EDTA to a final concentration of […]. Final reaction volumes were […]. For evaluation of PI 3-K inhibitors, 5 ng of enzyme and 2.5 μM of substrate was used per […] reaction volume, and inhibitor concentrations ranged from 100 μM to […]; the final level of DMSO in reactions never exceeded 2%. Reactions were allowed to proceed for one hour at 25° C. After 1 hour, GST-tagged GRP1 (general receptor for phosphoinositides) PH domain fusion protein was added to a final concentration of 100 nM, and BODIPY-TMRI(1,3,4,5)P4 (Echelon) was also added to a final concentration of 5 nM. Final sample volumes were 25 μl with a final DMSO concentration of 0.8%. Assay Plates were read on Perkin-Elmer Envision plate readers with appropriate filters for Tamra [BODIPY-TMRI(1,3,4,5)P4]. Data obtained were used to calculate enzymatic activity and enzyme inhibition by inhibitor compounds.

A further assay deals with PI3K gamma (Homo sapiens, UniProt P48736). The experiment in a line: PI3 Kinase Assay (PI3K gamma). The settings on record: 1 h. The method, then:
as §1

The next assay has as its target T1, recombinant human B-Raf (Homo sapiens, UniProt P15056).
T1 construct: Flag; GST; purchased Upstate; host or cells: Sf21 insect cells
Kind of assay: B-Raf Kinase Assay. As to the method: Reagents: Flag/GST-tagged recombinant human B-Raf produced in Sf21 insect cells (purchased from Upstate), human Mek-1-GST, non-active recombinant protein produced in E. coli (from Upstate); and a phospho-MEK1 specific poly-clonal Ab from Cell Signaling Technology (cat. #9121).
• B-Raf-1 is used to phosphorylate GST-MEK1. MEK1 phosphorylation is measured by a phospho-specific antibody (from Cell Signaling Technology, cat. #9121) that detects phosphorylation of two serine residues at positions 217 and 221 on MEK1.
1. Assay Dilution Buffer (ADB): 20 mM MOPS, pH 7.2, 25 mM β-glycerol phosphate, 5 mM EGTA, 1 mM sodium orthovanadate, 1 mM dithiothreitol, 0.01% Triton X-100. 2. Magnesium/ATP Cocktail: ADB solution (minus Triton X-100) plus 200 μM cold ATP and 40 mM magnesium chloride. 3. Active Kinase: Active B-Raf: used at 0.2 nM per assay point. 4. Non-active GST-MEK1: Use at 2.8 nM final concentration). 5. TBST-Tris (50 mM, pH 7.5), NaCl (150 mM), Tween-20 (0.05%)
7. Anti pMEK Ab (Upstate) 8. Anti-rabbit Ab/Europium conjugate (Wallac)
1. Add 25 μl of ADB containing B-Raf and Mek per assay (i.e. per well of a 96 well plate) 2. Add 25 μl of 0.2 mM ATP and 40 mM magnesium chloride in Magnesium/ATP Cocktail. 3. Incubate for 45 minutes at RT with occasional shaking. 4. Transfer this mixture to an anti-GST Ab coated 96 well plate (Nunc Immunosorb plates coated o/n with a-GST. Plate freshly washed 3× with TBS-T before use. 5. Incubate o/n at […] in cold room. 6. Wash 3× with TBST, add Anti-Phospho MEK1 (1:1000, dilution depends upon lot) 7. Incubate for 60 minutes at RT in a shaking incubator 8. Wash 3× with TBST, add Anti-rabbit Ab/Europium conjugate (Wallac) (1:500, dilution depends upon lot) 9. Incubate for 60 minutes at RT on a platform shaker. 10. Wash plate 3× with TBS-T 11. Add 100 ul of Wallac Delfia Enhancement Solution and shake for 10 minutes. 12. Read plates in Wallac Victor model Plate Reader. 13. Collect data analyze in Excel for single point and IC50 determinations.

For another assay, the target named is T2, human recombinant MK2 (Homo sapiens, UniProt P49137).
T2 construct: human recombinant MK2 (25 nM) containing residues 41 through 353
The experiment in a line: MK2 kinase ELISA based assay. As to the method:
MK2 kinase activity was assessed using human recombinant MK2 (25 nM) containing residues 41 through 353 in an ELISA based assay. The kinase reaction was performed on 96-well streptavidin coated plates using a biotinylated 16-mer peptide as a substrate derived from LSP1 in 20 mM Hepes pH7.4, 10 mM MgCl2, 3 mM DTT, 1 uM ATP, 0.01% Triton X100, 2% DMSO and various compound concentrations in a final volume of 100 ul. The reaction was stopped after 30 min incubation at room temperature with 50 ul of 0.5M EDTA and washed 6 times in PBS 0.05% Tween 20. Polyclonal anti phospho-LSP1 antibodies was then added to the plate along with a Goat anti-Rabbit antibody labeled with europium in 20 mM MOPS, 150 mM NaCl, 0.025% Tween 20, 0.02% gelatin, 1% BSA for 1 hour at room temperature. The plate was then washed 6 times in PBS 0.05% Tween 20 and enhancement solution from Perkin Elmer was added before counting on a Victor 2 reader from Perkin Elmer.
Background: An ELISA detects its analyte on a solid surface through an enzyme-linked reagent.

In a further assay the target is T3, human recombinant IRAK4 (Homo sapiens, UniProt Q9NWZ3).
T3 construct: human recombinant IRAK4 (4 nM) containing residues 154 through 460
T3 sequence (Q9NWZ3 154-460): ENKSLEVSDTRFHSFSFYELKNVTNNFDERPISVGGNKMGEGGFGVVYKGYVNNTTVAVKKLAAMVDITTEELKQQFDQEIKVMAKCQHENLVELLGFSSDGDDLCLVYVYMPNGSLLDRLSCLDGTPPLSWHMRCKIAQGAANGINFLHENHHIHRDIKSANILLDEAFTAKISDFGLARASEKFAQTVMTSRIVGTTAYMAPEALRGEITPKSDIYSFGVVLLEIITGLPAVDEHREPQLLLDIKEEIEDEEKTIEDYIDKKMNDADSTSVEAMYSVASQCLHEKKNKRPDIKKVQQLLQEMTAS
The experiment in a line: IRAK4 kinase ELISA based assay. As to the method:
IRAK4 kinase activity was assessed using human recombinant IRAK4 (4 nM) containing residues 154 through 460 in an ELISA based assay. The kinase reaction was performed on 96-well streptavidin coated plates using a biotinylated 11-mer peptide derived from MK2 in 20 mM Hepes pH7.4, 10 mM MgCl2, 3 mM DTT, 600 uM ATP, 0.01% Triton X100, 5% DMSO and various compound concentrations in a final volume of 100 ul. The reaction was stopped after 60 min incubation at room temperature with 50 ul of 0.5M EDTA and washed 6 times in PBS 0.05% Tween 20. A Rabbit polyclonal anti-phospho-threonine antibody was then added to the plate along with a Goat anti-Rabbit antibody labeled with europium in 20 mM MOPS, 150 mM NaCl, 0.025% Tween 20, 0.02% gelatin, 1% BSA for 1 hour at room temperature. The plate was then washed 6 times in PBS 0.05% Tween 20 and enhancement solution from Perkin Elmer was added before counting on a Victor 2 reader from Perkin Elmer.

PI3K alpha, sequence (P42336 whole entry, species assumed, the tested form may be a part): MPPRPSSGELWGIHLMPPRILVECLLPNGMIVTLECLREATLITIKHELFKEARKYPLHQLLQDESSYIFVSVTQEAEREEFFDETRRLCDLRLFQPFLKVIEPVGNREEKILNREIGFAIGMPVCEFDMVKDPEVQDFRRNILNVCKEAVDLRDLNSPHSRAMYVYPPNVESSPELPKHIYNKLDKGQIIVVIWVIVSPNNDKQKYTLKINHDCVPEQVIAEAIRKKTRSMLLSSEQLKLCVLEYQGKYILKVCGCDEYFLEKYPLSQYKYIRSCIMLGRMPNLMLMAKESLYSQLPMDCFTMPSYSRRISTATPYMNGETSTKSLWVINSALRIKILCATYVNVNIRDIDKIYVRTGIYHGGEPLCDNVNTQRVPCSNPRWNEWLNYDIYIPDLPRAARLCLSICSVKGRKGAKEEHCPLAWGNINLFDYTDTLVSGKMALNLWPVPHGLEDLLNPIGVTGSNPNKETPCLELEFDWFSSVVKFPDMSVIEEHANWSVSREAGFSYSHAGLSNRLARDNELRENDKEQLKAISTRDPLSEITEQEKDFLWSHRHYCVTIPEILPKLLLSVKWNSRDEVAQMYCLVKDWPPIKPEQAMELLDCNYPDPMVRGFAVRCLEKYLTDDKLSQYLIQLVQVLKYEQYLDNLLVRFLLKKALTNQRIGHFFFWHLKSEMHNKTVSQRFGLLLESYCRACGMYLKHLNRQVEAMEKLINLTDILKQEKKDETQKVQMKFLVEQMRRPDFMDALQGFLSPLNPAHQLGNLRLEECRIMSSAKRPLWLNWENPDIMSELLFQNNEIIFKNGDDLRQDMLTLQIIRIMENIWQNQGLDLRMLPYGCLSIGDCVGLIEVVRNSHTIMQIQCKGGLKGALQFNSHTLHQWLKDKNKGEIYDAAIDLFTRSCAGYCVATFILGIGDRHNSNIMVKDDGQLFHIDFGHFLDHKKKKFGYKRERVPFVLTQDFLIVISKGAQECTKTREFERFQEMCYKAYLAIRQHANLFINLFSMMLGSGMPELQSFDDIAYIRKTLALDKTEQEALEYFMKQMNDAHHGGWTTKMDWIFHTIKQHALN
PI3K alpha, sequence (P27986 whole entry partner, species assumed, the tested form may be a part): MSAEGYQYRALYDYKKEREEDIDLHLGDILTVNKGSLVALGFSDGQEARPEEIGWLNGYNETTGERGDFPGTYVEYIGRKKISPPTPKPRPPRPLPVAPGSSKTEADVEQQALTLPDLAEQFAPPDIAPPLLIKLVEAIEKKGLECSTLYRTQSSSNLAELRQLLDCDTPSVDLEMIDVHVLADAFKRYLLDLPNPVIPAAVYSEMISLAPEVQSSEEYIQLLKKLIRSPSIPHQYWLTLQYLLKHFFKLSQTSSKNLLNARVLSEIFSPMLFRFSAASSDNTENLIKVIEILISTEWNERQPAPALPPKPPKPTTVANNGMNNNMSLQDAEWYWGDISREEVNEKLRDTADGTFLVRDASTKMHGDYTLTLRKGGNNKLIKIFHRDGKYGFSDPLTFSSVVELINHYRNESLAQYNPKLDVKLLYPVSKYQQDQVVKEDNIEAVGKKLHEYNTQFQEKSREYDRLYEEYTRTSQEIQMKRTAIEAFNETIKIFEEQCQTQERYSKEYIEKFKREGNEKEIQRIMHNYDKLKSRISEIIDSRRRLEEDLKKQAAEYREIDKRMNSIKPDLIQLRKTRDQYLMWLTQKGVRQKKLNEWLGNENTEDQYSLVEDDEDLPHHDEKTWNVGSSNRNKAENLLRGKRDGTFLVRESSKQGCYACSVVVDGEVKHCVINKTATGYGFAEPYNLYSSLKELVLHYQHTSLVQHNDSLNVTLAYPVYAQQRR
T2 sequence (P49137 41-353): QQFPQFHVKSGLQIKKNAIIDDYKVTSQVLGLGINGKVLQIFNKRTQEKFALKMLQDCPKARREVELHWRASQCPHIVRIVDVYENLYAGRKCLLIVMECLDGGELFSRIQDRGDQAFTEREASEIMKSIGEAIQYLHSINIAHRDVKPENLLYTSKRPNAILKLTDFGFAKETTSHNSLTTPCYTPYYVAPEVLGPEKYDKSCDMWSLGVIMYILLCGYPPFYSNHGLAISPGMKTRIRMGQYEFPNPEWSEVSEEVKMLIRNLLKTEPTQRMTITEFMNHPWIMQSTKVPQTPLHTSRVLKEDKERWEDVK
T1 sequence (P15056 whole entry): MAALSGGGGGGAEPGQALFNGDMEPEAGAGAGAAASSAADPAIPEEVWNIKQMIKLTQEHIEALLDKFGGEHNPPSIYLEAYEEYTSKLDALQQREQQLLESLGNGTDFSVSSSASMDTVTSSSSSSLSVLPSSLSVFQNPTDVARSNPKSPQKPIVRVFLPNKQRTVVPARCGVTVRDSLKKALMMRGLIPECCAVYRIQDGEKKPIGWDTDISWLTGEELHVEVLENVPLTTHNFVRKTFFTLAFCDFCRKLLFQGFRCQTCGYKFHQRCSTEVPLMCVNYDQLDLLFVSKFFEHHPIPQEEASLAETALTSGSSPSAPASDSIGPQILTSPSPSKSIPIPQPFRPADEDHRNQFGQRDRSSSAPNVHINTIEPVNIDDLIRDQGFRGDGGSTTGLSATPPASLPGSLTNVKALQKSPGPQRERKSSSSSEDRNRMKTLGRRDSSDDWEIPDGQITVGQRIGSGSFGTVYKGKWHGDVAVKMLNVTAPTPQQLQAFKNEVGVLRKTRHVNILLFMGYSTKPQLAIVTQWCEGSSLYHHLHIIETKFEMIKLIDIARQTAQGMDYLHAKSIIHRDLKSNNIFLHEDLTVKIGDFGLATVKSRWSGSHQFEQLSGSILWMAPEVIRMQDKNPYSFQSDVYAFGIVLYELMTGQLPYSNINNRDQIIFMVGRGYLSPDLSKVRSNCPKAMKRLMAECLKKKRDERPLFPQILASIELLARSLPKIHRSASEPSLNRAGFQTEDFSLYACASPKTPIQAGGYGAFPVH
PI3K gamma, sequence (P48736 whole entry, species assumed): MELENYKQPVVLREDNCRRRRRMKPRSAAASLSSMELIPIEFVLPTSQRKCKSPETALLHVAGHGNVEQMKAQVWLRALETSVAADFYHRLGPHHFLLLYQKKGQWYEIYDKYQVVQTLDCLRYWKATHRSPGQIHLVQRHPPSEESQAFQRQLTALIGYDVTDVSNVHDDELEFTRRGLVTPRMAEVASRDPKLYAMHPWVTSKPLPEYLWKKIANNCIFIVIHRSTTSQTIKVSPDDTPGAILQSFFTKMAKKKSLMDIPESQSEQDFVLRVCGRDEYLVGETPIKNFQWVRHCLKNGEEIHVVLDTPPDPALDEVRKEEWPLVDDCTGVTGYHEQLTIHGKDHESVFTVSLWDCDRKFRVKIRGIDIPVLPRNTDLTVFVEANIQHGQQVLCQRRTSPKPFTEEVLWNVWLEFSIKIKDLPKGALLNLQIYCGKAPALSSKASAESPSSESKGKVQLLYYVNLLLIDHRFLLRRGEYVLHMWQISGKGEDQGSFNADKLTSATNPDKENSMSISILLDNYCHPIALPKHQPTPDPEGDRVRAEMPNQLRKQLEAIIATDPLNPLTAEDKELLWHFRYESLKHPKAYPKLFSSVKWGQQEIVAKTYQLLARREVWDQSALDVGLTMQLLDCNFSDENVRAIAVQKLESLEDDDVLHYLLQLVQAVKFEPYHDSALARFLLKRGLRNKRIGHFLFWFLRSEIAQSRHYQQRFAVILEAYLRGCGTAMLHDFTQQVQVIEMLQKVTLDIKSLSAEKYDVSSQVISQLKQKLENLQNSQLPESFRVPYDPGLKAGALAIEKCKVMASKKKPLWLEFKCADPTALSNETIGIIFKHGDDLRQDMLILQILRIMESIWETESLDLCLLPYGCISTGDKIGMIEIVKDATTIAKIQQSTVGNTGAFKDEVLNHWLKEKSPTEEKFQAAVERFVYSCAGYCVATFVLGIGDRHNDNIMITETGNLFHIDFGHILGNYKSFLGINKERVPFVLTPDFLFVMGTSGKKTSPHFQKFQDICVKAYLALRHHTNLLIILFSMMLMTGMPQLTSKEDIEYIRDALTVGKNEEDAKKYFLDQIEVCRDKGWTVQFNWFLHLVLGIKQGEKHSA

The term inhibition denotes the change of the read-out against control, counted positive when it falls. On to `COc1ncccc1Oc1ccn(C)c(=O)n1` [Example 59, 4-(2-Methoxypyridin-3-yloxy)-1-methylpyrimidin-2(1H)-one], for which the inhibition at 30 µM on PI3K alpha is 46%; against PI3K gamma, less than 10%.
Turning to `Cc1noc(C)c1Oc1ncnc2sccc12` [Example 35, 3,5-Dimethyl-4-(thieno[2,3-d]pyrimidin-4-yloxy)isoxazole], the inhibition at 30 µM on PI3K alpha amounted to 26%; on PI3K gamma it was 11%.
Regarding `COc1ncccc1Oc1ncc(Br)cn1` [Example 57, 5-Bromo-2-(2-methoxypyridin-3-yloxy)pyrimidine], the inhibition at 30 µM on PI3K alpha is 44%; on PI3K gamma, less than 10%.
In the case of `COc1ccc(Oc2ncnc3ccccc23)cc1` [Example 20, 4-(4-Methoxyphenoxy)quinazoline], the inhibition at 30 µM at PI3K alpha came to 65%; on PI3K gamma, 4%.
Turning to `FC(F)(F)c1ccc(Oc2ncnc3ccccc23)cc1` [Example 21, 4-(4-(Trifluoromethyl)phenoxy)quinazoline], the inhibition at 30 µM worked out at 36% against PI3K alpha and 6% on PI3K gamma.
Turning to `O=[N+]([O-])c1cccc(Oc2ncnc3sccc23)c1` [Example 34, 4-(3-Nitrophenoxy)thieno[2,3-d]pyrimidine], the inhibition at 30 µM at PI3K alpha was 14%; against PI3K gamma, less than 10%.
For `N#Cc1cccc(Oc2ncnc3sccc23)c1` [Example 32, 3-(Thieno[2,3-d]pyrimidin-4-yloxy)benzonitrile], the inhibition at 30 µM against PI3K alpha was 32%; at PI3K gamma it was less than 10%.
On the same counts, the results for `CC(=O)c1ccccc1Oc1ncc(Br)cn1` [compound 44, 1-[2-(5-Bromo-pyrimidin-2-yloxy)-phenyl]-ethanone] are 72% and 44%.
With `Clc1ccc(Oc2ncnc3ccccc23)cn1` [Example 25, 4-(6-Chloropyridin-3-yloxy)quinazoline], the figures for the inhibition at 30 µM on PI3K alpha, on PI3K gamma and at human recombinant MK2 were 42%, 11% and 31%, respectively. For the same molecule, the inhibition at 10 µM was determined as 20% on recombinant human B-Raf and 19% on human recombinant IRAK4.
On to `O=[N+]([O-])c1cccc(Oc2ncnc3ccccc23)c1` [Example 19, 4-(3-Nitrophenoxy)quinazoline], for which the inhibition at 30 µM against PI3K alpha was 24%; against PI3K gamma, less than 10%.
Turning to `COc1ncccc1Oc1ncnc2ccccc12` [Example 28, 4-(2-Methoxypyridin-3-yloxy)quinazoline], the inhibition at 30 µM was 22% on PI3K alpha and less than 10% at PI3K gamma.
Take `Cn1ccc(Oc2ccccc2)nc1=O` [Example 58, 1-Methyl-4-phenoxypyrimidin-2(1H)-one]: the figures for the inhibition at 30 µM at PI3K alpha and against PI3K gamma were 32% and less than 10%, respectively. Moreover, the inhibition at 10 µM on recombinant human B-Raf is 17%.
On to `COC(=O)c1sc2ncnc(Oc3cccc(C#N)c3)c2c1C` [Example 38, Methyl 4-(3-cyanophenoxy)-5-methylthieno[2,3-d]pyrimidine-6-carboxylate], for which the inhibition at 30 µM at PI3K alpha turned out to be 40%; against PI3K gamma it was 23%.
Consider `c1ccc2c(Oc3ccc4[nH]ccc4c3)ncnc2c1` [Example 29, 4-(1H-Indol-5-yloxy)quinazoline], for which the inhibition at 30 µM at PI3K alpha turned out to be 68%; on PI3K gamma, 21%. Also, at recombinant human B-Raf, the inhibition at 10 µM was determined as 21%.
As to `c1ccc2c(Oc3ccsc3)ncnc2c1` [Example 30, 4-(Thiophen-3-yloxy)quinazoline], the inhibition at 30 µM was found to be 87% at PI3K alpha, 55% against PI3K gamma and 34% on human recombinant MK2. Moreover, the inhibition at 10 µM at recombinant human B-Raf worked out at 14%; on human recombinant IRAK4 it was 39%.
With `COC(=O)c1sc2ncnc(Oc3ccccc3)c2c1C` [Example 36, Methyl 5-methyl-4-phenoxythieno[2,3-d]pyrimidine-6-carboxylate], the inhibition at 30 µM on PI3K alpha came out at 63%; at PI3K gamma it was 36%.
In the case of `COC(=O)c1sc2ncnc(Oc3cccc([N+](=O)[O-])c3)c2c1C` [Example 37, Methyl 5-methyl-4-(3-nitrophenoxy)thieno[2,3-d]pyrimidine-6-carboxylate], the values for the inhibition at 30 µM against PI3K alpha and on PI3K gamma were 24% and 16%, respectively.
With `CC(=O)c1ccc(Oc2ncnc3ccccc23)cc1` [Example 22, 1-(4-(Quinazolin-4-yloxy)phenyl)ethanone], the inhibition at 30 µM at PI3K alpha amounted to 34%; against PI3K gamma, 45%.
For `N#Cc1ccc(Oc2ncnc3ccccc23)cc1` [Example 24, 4-(Quinazolin-4-yloxy)benzonitrile], the inhibition at 30 µM at PI3K alpha was 18%; on PI3K gamma, less than 10%.
In the case of `COC(=O)c1sc2ncnc(Oc3c(C)noc3C)c2c1C` [Example 39, Methyl 4-(3,5-dimethylisoxazol-4-yloxy)-5-methylthieno[2,3-d]pyrimidine-6-carboxylate], the inhibition at 30 µM was 24% at PI3K alpha, 15% at PI3K gamma and 32% at human recombinant MK2. Besides, on human recombinant IRAK4, the inhibition at 10 µM was determined as 21%.
